Results on 8 compounds are retold here after patent publication US12171230B2, “Herbicidal compositions” (Bayer Aktiengesellschaft, priority 2018, dated 2024).

The structures appear in SMILES notation.

What all share (type): in vivo
The subject of assay [1] is Bidens pilosa. Put plainly: Post-emergence herbicidal action against Bidens pilosa. The protocol:
(§1) When the observed efficacies exceed the formal sum total of the values of the tests with individual applications, they also exceed the expected value according to Colby, which is calculated using the formula below and is likewise regarded as an indication of synergism (cf. S. R. Colby; in Weeds 15 (1967) p. 20 to 22): E^C=A+B−([…])
(§2) Here: • A=efficacy of the active compound (A) in % at an application rate of a g a.i./ha; • B=efficacy of the active compound (B) in % at an application rate of b g a.i./ha; • E^C=expected value of the effect of the combination (A)+(B) in % at the combined application rate a+b g a.i./ha.
(§3) Seeds or rhizome pieces of mono- and dicotyledonous weeds are placed in sandy loam in pots, covered with soil and grown in a greenhouse under good growth conditions (temperature, air humidity, water supply). Three weeks after sowing, the test plants were treated at the three-leaf stage with the compositions according to the invention. The compositions according to the invention formulated as spray powders or as emulsion concentrates were sprayed onto the green plant parts in various dosages with an application rate of 300 to 800 l/ha of water (equivalent). After the test plants have been left to stand in the greenhouse under optimal growth conditions for about 3 to 4 weeks, the action of the preparations is scored visually in comparison to untreated controls. The compositions according to the invention also have good post-emergence herbicidal activity against a broad spectrum of economically important gramineous and broadleaf weeds.

Assay [2] has as its system Digitaria sanguinalis. As to the kind of experiment: Post-emergence herbicidal action against Digitaria sanguinalis. As to conditions: for Herbicidal action: 21 DAT. Here is the method: as §1, §2, §3
Assay [3] relates to Centaurea cyano. Put plainly: Post-emergence herbicidal action against Centaurea cyano. The protocol: Seeds or rhizome pieces of mono- and dicotyledonous weeds are placed in sandy loam in pots, covered with soil and grown in a greenhouse under good growth conditions (temperature, air humidity, water supply). Three weeks after sowing, the test plants were treated at the three-leaf stage with the compositions according to the invention. The compositions according to the invention formulated as spray powders or as emulsion concentrates were sprayed onto the green plant parts in various dosages with an application rate of 300 to 800 l/ha of water (equivalent).

Assay [4] has as its system Matricaria inodora. Put plainly: Post-emergence herbicidal action against Matricaria inodora.
The subject of assay [5] is Lolium rigidum (resistant biotype). As to the kind of experiment: Post-emergence herbicidal action against Lolium rigidum (resistant biotype). From the text:
(§4) The following abbreviations are used in the description and the tables that follow: • g of a.i./ha=grams of active substance (active ingredient) (=100% active compound) per hectare; • The sum total of the effects of the individual applications is reported under E^A; • expected values according to Colby are each reported under E^C.
(§5) The rating period is reported in days after application (DAT).

In assay [6] the test system is Phalaris minor. Put plainly: Post-emergence herbicidal action against Phalaris minor. The settings on record: 15 g of a.i./ha.
Description: as §4, §5

The test system of assay [7] is Alopecurus myosuroides. Put plainly: Post-emergence herbicidal action against Alopecurus myosuroides. As to conditions: 1.7 g of a.i./ha.
Description: as §4, §5

Assay [8] deals with Amaranthus palmeri. Put plainly: Post-emergence herbicidal action against Amaranthus palmeri. As to conditions: Amaranthus palmeri, post-emergence, 504 h. Here is the method:
as §1, §2, §3

For assay [9], the system named is Poa annua. As to the kind of experiment: Post-emergence herbicidal action against Poa annua. As to conditions: for Herbicidal action in [%] 28 DAT against Poa annua: post-emergence. Here is the method:
as §1, §2, §3

In assay [10] the test system is Alopecurus myosuroides. As to the kind of experiment: Post-emergence herbicidal action against Alopecurus myosuroides.
Assay [11] relates to Bromus sterilis. Put plainly: Post-emergence herbicidal action against Bromus sterilis.
The subject of assay [12] is Lolium rigidum. Put plainly: Post-emergence herbicidal action against Lolium rigidum.
For assay [13], the system named is Lolium rigidum (resistant biotype). As to the kind of experiment: Post-emergence herbicidal action against Lolium rigidum (resistant biotype). This is another data set of the same source.
Assay [14] concerns Phalaris minor. Put plainly: Post-emergence herbicidal action against Phalaris minor.
The test system of assay [15] is Galium aparine. As to the kind of experiment: Post-emergence herbicidal action against Galium aparine. The settings on record: for Herbicidal action in [%] 28 DAT against Galium aparine: post-emergence. The protocol:
as §1, §2, §3

With `CP(=O)(O)CCC(N)C(=O)O` (racemic) [(B7.4) Glufosinate-], the Herbicidal action in assay [1] (21 DAT, 360 g a.i./ha) came out at 70%; in assay [2] (40 g a.i./ha), 10%; in [2] (120 g a.i./ha) it was 30%.
On to `COc1cc(OC)nc(NC(=O)NS(=O)(=O)c2cc(CNS(C)(=O)=O)ccc2C(=O)O)n1` [(B2.37) Mesosulfuron], for which the “Herbicidal action 28 DAT against Centaurea cyanus” value in assay [3] (5 g of a.i./ha) is reported as 60%. Also, in assay [4] (15 g of a.i./ha), the “Herbicidal action 14 DAT against Matricaria inodora” value came to 75% and the “Herbicidal action 28 DAT against Matricaria inodora” value worked out at 65%. Besides, in assay [5] (1.7 g of a.i./ha), the “Herbicidal action 14 DAT against Lolium rigidum (resistant biotype)” value (shortened to “Herbicidal action 14 DAT … (resistant biotype)”) was determined as 20% and the “Herbicidal action 28 DAT against Lolium rigidum (resistant biotype)” value (from here on “Herbicidal action 28 DAT … (resistant biotype)”) amounted to 0%. Also, in assay [5] (5 g of a.i./ha), the “Herbicidal action 14 DAT … (resistant biotype)” value amounted to 30% and the “Herbicidal action 28 DAT … (resistant biotype)” value came out at 0%. Besides, in [5] (15 g of a.i./ha), the “Herbicidal action 14 DAT … (resistant biotype)” value was 30% and the “Herbicidal action 28 DAT … (resistant biotype)” value is on record as 20%. Further, the “Herbicidal action 28 DAT against Phalaris minor” value in [6] stood at 85%. In addition, in [7], the “Herbicidal action 28 DAT against Alopecurus myosuroides” value was 75%.
For the compound `COCc1cnc(C2=NC(C)(C(C)C)C(=O)N2)c(C(=O)O)c1` (stereo not shown) [(B4.11) Imazamox], the results for the “Herbicidal action 21 DAT [%] against Bidens pilosa” value in [1] (3.3 g of a.i./ha) and in [1] (30 g of a.i./ha) were 20% and 50%, respectively. Further, the “Herbicidal action 21 DAT [%] against Digitaria sanguinalis” value in assay [2] (3.3 g of a.i./ha) turned out to be 60%.
Take `CCc1cnc(C2=NC(C)(C(C)C)C(=O)N2)c(C(=O)O)c1` (stereo not shown) [(B4.15) Imazethapyr]: the pest or weed control at 3.33 g/ha in assay [8] (3.33 g of a.i./ha, read-out: Herbicidal action 21 DAT [%] against Amaranthus palmeri) was determined as 0%. Further, the pest or weed control at 10 g/ha in assay [8] (10 g of a.i./ha, read-out: Herbicidal action 21 DAT [%] against Amaranthus palmeri) was determined as 0%. In addition, the pest or weed control at 30 g/ha in [8] (30 g of a.i./ha, read-out: Herbicidal action 21 DAT [%] against Amaranthus palmeri) was found to be 10%. Further, the results for the “Herbicidal action 21 DAT [%] against Bidens pilosa” value in [1] (3.33 g of a.i./ha), in assay [1] (10 g of a.i./ha) and in assay [1] (30 g of a.i./ha) were 0%, 0% and 25%, respectively.
With `Cc1nn(C)c(O)c1C(=O)c1ccc(C(F)(F)F)cc1S(C)(=O)=O` [(B4.22) Pyrasulfotole], the “Herbicidal action in [%] 14 DAT against Poa annua L.” value in assay [9] (5 g of a.i./ha), in assay [9] (15 g of a.i./ha) and in [9] (45 g of a.i./ha) was 0% each time. For the same compound, the “Herbicidal action in [%] 28 DAT against Poa annua L.” value in assay [9] (5 g of a.i./ha), in assay [9] (15 g of a.i./ha) and in assay [9] (45 g of a.i./ha) was 0% in each case. Moreover, the “Herbicidal action in [%] 28 DAT against Centaurea cyanus” value in assay [3] (5 g of a.i./ha) is 0%; in [3] (15 g of a.i./ha), 0%; in assay [3] (45 g of a.i./ha), 20%. For the same compound, the “Herbicidal action in [%] 14 DAT against Centaurea cyanus” value in assay [3] (15 g of a.i./ha) is 10%; in [3] (45 g of a.i./ha) it was 30%. The “Herbicidal action in [%] 14 DAT against Matricaria inodora” value in [4] (5 g of a.i./ha) was determined as 20%. For the same compound, the “Herbicidal action in [%] 28 DAT against Matricaria inodora” value in assay [4] (5 g of a.i./ha) was found to be 10%. For the same compound, the “Herbicidal action in [%] 14 DAT against Alopecurus myosuroides” value in assay [10] (5 g of a.i./ha) amounted to 0%; in [10] (15 g of a.i./ha), 0%; in assay [10] (45 g of a.i./ha), 10%. The “Herbicidal action in [%] 28 DAT against Alopecurus myosuroides” value in assay [10] (5 g of a.i./ha) came out at 0%; in assay [10] (15 g of a.i./ha), 0%; in assay [10] (45 g of a.i./ha) it was 10%. In addition, the “Herbicidal action in [%] 14 DAT against Bromus sterilis” value in assay [11] (5 g of a.i./ha) came to 0%; in [11] (15 g of a.i./ha) it was 0%; in [11] (45 g of a.i./ha), 10%. Moreover, the “Herbicidal action in [%] 14 DAT against Lolium rigidum” value in assay [12] (5 g of a.i./ha) stood at 0%; in assay [12] (15 g of a.i./ha), 5%; in [12] (45 g of a.i./ha) it was 5%. In addition, the “Herbicidal action in [%] 28 DAT against Lolium rigidum” value was 0% in assay [12] (5 g of a.i./ha), 0% in assay [12] (15 g of a.i./ha) and 10% in assay [12] (45 g of a.i./ha). For the same compound, the “Herbicidal action in [%] 14 DAT against Lolium rigidum (resistant biotype)” value is given as 5% in [13] (5 g of a.i./ha), 5% in assay [13] (15 g of a.i./ha) and 10% in [13] (45 g of a.i./ha). The “Herbicidal action in [%] 28 DAT against Lolium rigidum (resistant biotype)” value in assay [13] (5 g of a.i./ha) and in [13] (15 g of a.i./ha) was 0% throughout. Further, the “Herbicidal action in [%] 14 DAT against Phalaris minor” value in assay [14] (5 g of a.i./ha) and in assay [14] (15 g of a.i./ha) was 0% in each case. The “Herbicidal action in [%] 28 DAT against Phalaris minor” value in assay [14] (5 g of a.i./ha) and in [14] (15 g of a.i./ha) was 0% each time.
For the compound `C#CCN1C(=O)COc2cc(F)c(N3C(=O)C4=C(CCCC4)C3=O)cc21` [(B5.26) Flumioxazin], in [8] (21 DAT, 1.33 g of a.i./ha), the pest or weed control at 1.33 g/ha was 0%. The pest or weed control at 4 g/ha in assay [8] (21 DAT, 4 g of a.i./ha) was found to be 0%. For the same compound, in assay [8] (21 DAT, 12 g of a.i./ha), the pest or weed control at 12 g/ha stood at 10%.
Turning to `CCOC(=O)COc1ncccc1Oc1cc(-n2c(=O)cc(C(F)(F)F)n(C)c2=O)c(F)cc1Cl` [(B9.14), ethyl [3-[2-chloro-4-fluoro-5-(1-methyl-6-trifluoromethyl-2,4-dioxo-1,2,3,4-tetrahydropyrimidin-3-yl)phenoxy]-2-pyridyloxy]acetate, reference compound], the “Herbicidal action in [%] 28 DAT against Poa annua” value in assay [9] (5 g of a.i./ha) amounted to 80%; in [9] (10 g of a.i./ha), 60%. Further, the “Herbicidal action in [%] 28 DAT against Centaurea cyano” value in assay [3] (2.5 g of a.i./ha, post-emergence) was determined as 90%. For the same compound, the “Herbicidal action in [%] 28 DAT against Galium aparine” value in assay [15] (5 g of a.i./ha) and in assay [15] (10 g of a.i./ha) was 90% each time. In assay [4] (10 g of a.i./ha, post-emergence), the “Herbicidal action in [%] 28 DAT against Matricaria inodora” value worked out at 98%.
On to `CC(C)N.O=C(O)CNCP(=O)(O)O` [(CAS 38641-94-0)], for which the Herbicidal action in assay [15] (28 DAT, 150 g a.i./ha) turned out to be 40%.
